Assay results: the supplement of paper PMC10307832

Legend:
Assay in all cases: relative viability (nuclei count vs DMSO), 5 days (fraction); higher = more cells survive
NCI-H23 = system: NCI-H23
Method in brief: (§1)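 Lung cancer cell lines in 1536-well plates got either a single drug or a fixed anchor-drug dose together with five library-drug doses (not always all listed) in √10 steps, by pin tool, on the day after seeding. Nuclei were counted after 5 days, and relative viability is the treated-to-vehicle ratio of nuclei counts. Values are medians of duplicate plates.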

NCI-H2087 = system: NCI-H2087
Method in brief: as §1

NCI-H596 = system: NCI-H596
Method in brief: as §1

LCLC-103H = system: LCLC-103H
Method in brief: as §1

NCI-H3122 = system: NCI-H3122
Method in brief: as §1

NCI-H2347 = system: NCI-H2347
Method in brief: as §1

NCI-H1395 = system: NCI-H1395
Method in brief: as §1

NCI-H1993 = system: NCI-H1993
Method in brief: as §1

NCI-H727 = system: NCI-H727
Method in brief: as §1

NCI-H2023 = system: NCI-H2023
Method in brief: as §1

NCI-H650 = system: NCI-H650
Method in brief: as §1

EMC-BAC-2 = system: EMC-BAC-2
Method in brief: as §1

SMILES: NC(=O)Nc1cc(-c2cccc(F)c2)sc1C(=O)N[C@H]1CCCNC1 [AZD7762] + C[C@]1(O)C[C@@H](c2nc(-c3ccc4ccc(-c5ccccc5)nc4c3)c3c(N)nccn32)C1 [Linsitinib] (partner 1 µM)
- relative viability (NCI-H23; first compound 0.01 µM): 0.659
- relative viability (NCI-H23; first compound 0.03162 µM): 0.631
- relative viability (NCI-H23; first compound 0.1 µM): 0.517
- relative viability (NCI-H23; first compound 0.3162 µM): 0.517
- relative viability (NCI-H23; first compound 1 µM): 0.252
- relative viability (NCI-H2087; first compound 0.01 µM): 0.995
- relative viability (NCI-H2087; first compound 0.03162 µM): 0.986
- relative viability (NCI-H2087; first compound 0.1 µM): 1.07
- relative viability (NCI-H2087; first compound 0.3162 µM): 1.03
- relative viability (NCI-H2087; first compound 1 µM): 1.17
- relative viability (NCI-H596; first compound 0.01 µM): 1.04
- relative viability (NCI-H596; first compound 0.03162 µM): 1.04
- relative viability (NCI-H596; first compound 0.1 µM): 1.03
- relative viability (NCI-H596; first compound 0.3162 µM): 1.1
- relative viability (NCI-H596; first compound 1 µM): 0.923
- relative viability (LCLC-103H; first compound 0.01 µM): 1.1
- relative viability (LCLC-103H; first compound 0.03162 µM): 1.09
- relative viability (LCLC-103H; first compound 0.1 µM): 0.997
- relative viability (LCLC-103H; first compound 0.3162 µM): 1.11
- relative viability (LCLC-103H; first compound 1 µM): 0.738
- relative viability (NCI-H3122; first compound 0.01 µM): 1.02
- relative viability (NCI-H3122; first compound 0.03162 µM): 0.986
- relative viability (NCI-H3122; first compound 0.1 µM): 1.05
- relative viability (NCI-H3122; first compound 0.3162 µM): 0.868
- relative viability (NCI-H3122; first compound 1 µM): 1.12
- relative viability (NCI-H2347; first compound 0.01 µM): 1.09
- relative viability (NCI-H2347; first compound 0.03162 µM): 1.01
- relative viability (NCI-H2347; first compound 0.1 µM): 1.15
- relative viability (NCI-H2347; first compound 0.3162 µM): 1.1
- relative viability (NCI-H2347; first compound 1 µM): 1.04
- relative viability (NCI-H1395; first compound 0.01 µM): 1.16
- relative viability (NCI-H1395; first compound 0.03162 µM): 1.09
- relative viability (NCI-H1395; first compound 0.1 µM): 0.966
- relative viability (NCI-H1395; first compound 0.3162 µM): 0.579
- relative viability (NCI-H1395; first compound 1 µM): 0.481
- relative viability (NCI-H1993; first compound 0.01 µM): 0.743
- relative viability (NCI-H1993; first compound 0.03162 µM): 0.678
- relative viability (NCI-H1993; first compound 0.1 µM): 0.666
- relative viability (NCI-H1993; first compound 0.3162 µM): 0.73
- relative viability (NCI-H1993; first compound 1 µM): 0.717
- relative viability (NCI-H727; first compound 0.01 µM): 0.282
- relative viability (NCI-H727; first compound 0.03162 µM): 0.333
- relative viability (NCI-H727; first compound 0.1 µM): 0.311
- relative viability (NCI-H727; first compound 0.3162 µM): 0.219
- relative viability (NCI-H727; first compound 1 µM): 0.118
- relative viability (NCI-H2023; first compound 0.01 µM): 0.619
- relative viability (NCI-H2023; first compound 0.03162 µM): 0.485
- relative viability (NCI-H2023; first compound 0.1 µM): 0.387
- relative viability (NCI-H2023; first compound 0.3162 µM): 0.21
- relative viability (NCI-H2023; first compound 1 µM): 0.0864
- relative viability (NCI-H650; first compound 0.01 µM): 1.01
- relative viability (NCI-H650; first compound 0.03162 µM): 0.984
- relative viability (NCI-H650; first compound 0.1 µM): 0.842
- relative viability (NCI-H650; first compound 0.3162 µM): 0.843
- relative viability (NCI-H650; first compound 1 µM): 0.811
- relative viability (EMC-BAC-2; first compound 0.01 µM): 0.795
- relative viability (EMC-BAC-2; first compound 0.03162 µM): 0.806
